The text below walks through data of patent US4857540A, “Dopamine-β-hydroxylase inhibitors” (SmithKline Beckman Corporation, priority 1987, dated 1989).

In data set [1] the target is T1, dopamine-β-hydroxylase (DBH) (Bos taurus, UniProt P15101).
T1 sequence (P15101 1-610): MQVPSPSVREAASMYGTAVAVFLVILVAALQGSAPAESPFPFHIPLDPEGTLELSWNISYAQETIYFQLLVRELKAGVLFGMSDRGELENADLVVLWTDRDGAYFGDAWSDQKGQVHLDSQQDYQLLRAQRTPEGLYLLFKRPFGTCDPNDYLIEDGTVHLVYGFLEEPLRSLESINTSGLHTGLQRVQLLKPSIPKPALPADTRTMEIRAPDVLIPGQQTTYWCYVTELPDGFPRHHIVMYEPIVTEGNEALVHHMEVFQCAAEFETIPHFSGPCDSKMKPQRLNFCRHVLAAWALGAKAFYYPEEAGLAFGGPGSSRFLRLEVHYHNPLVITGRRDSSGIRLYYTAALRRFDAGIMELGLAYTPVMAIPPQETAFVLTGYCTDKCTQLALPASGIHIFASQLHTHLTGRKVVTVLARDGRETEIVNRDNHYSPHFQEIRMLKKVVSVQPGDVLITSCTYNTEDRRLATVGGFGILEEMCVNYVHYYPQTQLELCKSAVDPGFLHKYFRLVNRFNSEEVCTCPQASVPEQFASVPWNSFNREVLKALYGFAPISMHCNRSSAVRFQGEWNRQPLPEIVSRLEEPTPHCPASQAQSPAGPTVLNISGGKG
The data set can be described thus: in vitro DBH inhibition, conversion of tyramine to octopamine (absorbance at 330 nm). It is filed as biochemical. Conditions: read-out: DBH inhibition, % at 10^-4 M.

For data set [2], the system named is peripheral dopamine (DA) and norepinephrine (NE) levels. The data set can be described thus: effects in vivo on peripheral dopamine (DA) and norepinephrine (NE) levels. On the set-up: species or system Spontaneously hypertensive rats. Conditions: dosed twice about 18 hours apart, sacrificed about 2 hours after second dose, mean of 5 animals; for DA / NE: per gram of tissue. On the procedure:
Various compounds of the invention were tested for their effects in vivo on peripheral dopamine (DA) and norepinephrine (NE) levels substantially by the procedure of DaPrada and Zurcher, Life Sci., 19, 1161, (1976). Spontaneously hypertensive rats were dosed twice, the second dose being abut 18 hours after the first, and were sacrificed about 2 hours after the second dose.

Data set [3] deals with T1, dopamine-β-hydroxylase (DBH). The data set can be described thus: in vitro DBH inhibition, conversion of tyramine to octopamine (absorbance at 330 nm). It is filed as biochemical. On the procedure: Compounds of the invention and other compounds useful in the method of the invention were screened for in vitro DBH inhibition by a standard procedure for assaying conversion of tyramine to octopamine in the presence of DBH. Octopamine was assayed following sodium periodate oxidation to p-hydroxybenzaldehyde by measuring spectrophotometric absorbance at 330 nm. Inhibition is given in molar concentration of compound at which DBH activity was halved (IC50). Melting points (mp) are given in °C.

A short description of data set [4]: mean arterial blood pressure, indwelling cannulae in tail artery. It is filed as in vivo, Spontaneously hypertensive rats. Conditions: 50 mg/kg i.p. The protocol:
Further, the same rats were dosed with a suspension or solution at a dose of 50 mg/kg of test compound i.p. and mean arterial blood pressure determined with indwelling cannulae inserted into the tail artery.

For data set [5] the following is noted: Teresawa et al., Japan, Cir. J. 35, 339 (1971); cited from earlier work.
Where [6] appears, read: in vitro, tyramine to octopamine, read-out: IC50 value (molar concentration of compound at which DBH activity was halved).

Structures are written as SMILES. Where a name gives a salt, the structure may show the parent alone. Read-outs that look alike come from different tables or passages of the source.

As to `Sc1nc2ccccc2n1Cc1c(Cl)cccc1Cl` [Example 2, 1-(2,6-dichlorobenzyl)-2-mercaptobenzimidazole], the inhibition at 100 µM in data set [1] worked out at 60%. On to `COc1c(F)cc(Cn2c(S)nc3ccccc32)cc1F` [Example 3, 1-(3,5-difluoro-4-methoxybenzyl)-2-mercaptobenzimidazole], for which, in data set [2], the “DA/NE Ratio” value is 0.055, the DA was found to be 0.397 µg/g and the NE stood at 7.82 µg/g. For `Sc1nc2ccccc2n1Cc1cc(Cl)cc(Cl)c1` [Example 4, 1-(3,5-dichlorobenzyl)-2-mercaptobenzimidazole], the inhibition at 100 µM in data set [1] was found to be 70%. Regarding `Sc1nc2ccccc2n1Cc1ccccc1` [Example 5, N-benzyl-2-mercaptobenzimidazole], in data set [3] (setting [6]), the IC50 was determined as 61 µM.

For the compound `Fc1cc(F)cc(Cn2c(S)nc3ccccc32)c1` [Example 6, 1-(3,5-difluorobenzyl)-2-mercaptobenzimidazole], in data set [2], the “DA/NE Ratio” value came out at 0.086, the DA stood at 0.607 µg/g and the NE is 7.054 µg/g. The IC50 in data set [3] (setting [6]) is 6.2 µM. In data set [4], the mean arterial pressure result was “significant reduction in mean arterial pressure”. As to `COc1ccc(Cn2c(S)nc3ccccc32)cc1` [Example 7, 1-(4-methoxybenzyl)-2-mercaptobenzimidazole], the inhibition at 100 µM in data set [1] was found to be 6%. Regarding `Oc1c(Cl)cc(Cn2c(S)nc3ccccc32)cc1Cl` [Example 8, 1-(3,5-dichloro-4-hydroxybenzyl)-2-mercaptobenzimidazole], the IC50 in data set [3] (setting [6]) is 3.8 µM. As to `Oc1c(F)cc(Cn2c(S)nc3ccccc32)cc1F` [Example 9, 1-(3,5-difluoro-4-hydroxybenzyl)-2-mercaptobenzimidazole], in data set [3] (setting [6]), the IC50 is 0.66 µM.

For `Oc1ccc(Cn2c(S)nc3ccccc32)cc1` [Example 10, 1-(4-hydroxybenzyl)-2-mercaptobenzimidazole], the IC50 in data set [3] (setting [6]) came to 13 µM. For the compound `NCc1nc2ccccc2n1Cc1ccccc1` [Example 37, 1-Benzyl-2-aminomethylbenzimidazole hydrochloride], the IC50 in data set [3] (setting [6]) turned out to be 0.12 µM. Consider `NCc1nc2ccccc2n1Cc1ccc(Cl)c(Cl)c1` [Example 38, 1-[3,4-Dichlorobenzyl]-2-aminomethylbenzimidazole dihydrochloride], for which the IC50 in data set [3] (setting [6]) worked out at 69 µM. For the compound `NCc1nc2ccccc2n1Cc1cccc(F)c1` [Example 39, 1-[3-fluorobenzyl]-2-aminomethylbenzimidazole dihydrofluoride], in data set [3] (setting [6]), the IC50 is 130 µM. Same read-out and setting: the result for `NCc1nc2ccccc2n1Cc1cccc(Cl)c1` [Example 40, 1-[3-chlorobenzyl]-2-aminomethylbenzimidazole dihydrochloride] reads 113 µM. In the case of `CCCCc1ccc(C(=O)O)nc1` [fusaric acid, reference compound], in data set [5], the hepatotoxicity entry is “hepatotoxic”. The same compound had an IC50 in data set [3] of approximately 0.8 µM.
